Experimental findings from ChEMBL document CHEMBL3588806, “Generation of Broad-Spectrum Antifungal Drug Candidates from the Natural Product Compound Aureobasidin A” (ACS Med Chem Lett, 2015) are described below.

Values after ≈ are worked out from the molar mass of the structure shown. Active and inactive are the calls of the source. The rule behind the calls is not given here. Starred links: 1 amine or outer side, 2 acyl side, 3 side chain; linkers in the order of their positions; H or OH if unused. Non-standard residues stand in square brackets, D forms with d. Residues, ends and D or L forms follow the SMILES beside them. X2 = CN([C@@H](Cc1cccc(-c2cccc(-c3ccccc3)c2)c1)C(=O)[*:2])[*:1]; X4 = CN([C@@H](Cc1cccc(-c2ccc(-c3ccccc3)cc2)c1)C(=O)[*:2])[*:1]; X12 = CC(=O)Nc1ccc(-c2cccc(C[C@@H](C(=O)[*:2])N(C)[*:1])c2)cc1; X15 = CNC(=O)c1ccc(-c2cccc(C[C@@H](C(=O)[*:2])N(C)[*:1])c2)cc1; X7 = CN([C@@H](Cc1cccc(B2OC(C)(C)C(C)(C)O2)c1)C(=O)[*:2])[*:1]; X13 = COc1ccc(-c2cccc(C[C@@H](C(=O)[*:2])N(C)[*:1])c2)cc1; X3 = CN([C@@H](Cc1cccc(-c2ccc(Cl)cc2)c1)C(=O)[*:2])[*:1]; X8 = CN([C@@H](Cc1cccc(-c2ccc(Cl)nc2)c1)C(=O)[*:2])[*:1]; X10 = CCCCCC/C=C/c1cccc(C[C@@H](C(=O)[*:2])N(C)[*:1])c1; X6 = CN([C@@H](Cc1cccc(-c2ccccc2Cl)c1)C(=O)[*:2])[*:1]; X11 = CN([C@@H](Cc1ccc(-c2cccnc2)cc1)C(=O)[*:2])[*:1]; X14 = CN([C@@H](Cc1cccc(C2=CCCCC2)c1)C(=O)[*:2])[*:1]; X9 = CN([C@@H](Cc1cccc(-c2ccncc2)c1)C(=O)[*:2])[*:1]; NMePhe(3-Ph) = CN[C@@H](Cc1cccc(-c2ccccc2)c1)C(=O)O; X5 = CN([C@@H](Cc1cccc(B(O)O)c1)C(=O)[*:2])[*:1]; NMePhe(3-Br) = CN[C@@H](Cc1cccc(Br)c1)C(=O)O; NMePhe(3-I) = CN[C@@H](Cc1cccc(I)c1)C(=O)O; Hmp(2R,3S) = CC[C@H](C)[C@@H](O)C(=O)O; NMeVal(β-OH) = CN[C@H](C(=O)O)C(C)(C)O; NMeD = CN[C@@H](CC(=O)O)C(=O)O; NMeV = CN[C@H](C(=O)O)C(C)C

Holding throughout (assay type): functional
Assay [1] deals with Candida albicans. The experiment in a line: Antifungal activity against Candida albicans by broth dilution method. (In general: Broth dilution looks for growth in wells or tubes with falling amounts of substance.)
The test system of assay [2] is Aspergillus fumigatus. The experiment in a line: Antifungal activity against Aspergillus fumigatus by broth dilution method.
The nature of assay [3]: Ratio of MIC for Aspergillus fumigatus to MIC for Candida albicans.

A word on the MIC: it is the least concentration at which growth counts as inhibited. A lower MIC goes with a more susceptible organism. Take `CC[C@H](C)[C@@H]1NC(=O)[C@@H]2CCCN2C(=O)[C@H](CC(=O)O)N(C)C(=O)[C@H](CC(=O)O)NC(=O)[C@H](C(C)C)N(C)C(=O)[C@@H]([C@@H](C)CC)OC(=O)[C@H](C(C)(C)O)N(C)C(=O)[C@H](CC(C)C)NC(=O)[C@H](C(C)C)N(C)C1=O` (cyclo(D[NMeD]PI[NMeV]L[NMeVal(β-OH)][Hmp(2R,3S)][NMeV])): the MIC in assay [1] is 10 µg/mL (≈ 9.64 µM); in assay [2], above 100 µg/mL.
The corresponding values for `CC[C@H](C)[C@@H]1NC(=O)[C@@H]2CCCN2C(=O)[C@H](Cc2cccc(I)c2)N(C)C(=O)[C@H](Cc2ccccc2)NC(=O)[C@H](C(C)C)N(C)C(=O)[C@@H]([C@@H](C)CC)OC(=O)[C@H](C(C)(C)O)N(C)C(=O)[C@H](CC(C)C)NC(=O)[C@H](C(C)C)N(C)C1=O` (cyclo(F[NMePhe(3-I)]PI[NMeV]L[NMeVal(β-OH)][Hmp(2R,3S)][NMeV])) are 2.5 µg/mL (≈ 2.04 µM) and above 5 µg/mL.
In assay [2], `CCCCCC/C=C/c1cccc(C[C@H]2C(=O)N3CCC[C@H]3C(=O)N[C@@H]([C@@H](C)CC)C(=O)N(C)[C@@H](C(C)C)C(=O)N[C@@H](CC(C)C)C(=O)N(C)[C@@H](C(C)(C)O)C(=O)O[C@H]([C@@H](C)CC)C(=O)N(C)[C@@H](C(C)C)C(=O)N[C@@H](Cc3ccccc3)C(=O)N2C)c1` (cyclo(F[X10]PI[NMeV]L[NMeVal(β-OH)][Hmp(2R,3S)][NMeV])) returned an MIC above 5 µg/mL.
For the molecule `CC[C@H](C)[C@@H]1NC(=O)[C@@H]2CCCN2C(=O)[C@H](Cc2cccc(B(O)O)c2)N(C)C(=O)[C@H](Cc2ccccc2)NC(=O)[C@H](C(C)C)N(C)C(=O)[C@@H]([C@@H](C)CC)OC(=O)[C@H](C(C)(C)O)N(C)C(=O)[C@H](CC(C)C)NC(=O)[C@H](C(C)C)N(C)C1=O` (cyclo(F[X5]PI[NMeV]L[NMeVal(β-OH)][Hmp(2R,3S)][NMeV])), the MIC was below 0.05 µg/mL in assay [1] and above 100 µg/mL in assay [2].
Regarding `CC[C@H](C)[C@@H]1NC(=O)[C@@H]2CCCN2C(=O)[C@H](Cc2cccc(Br)c2)N(C)C(=O)[C@H](CC(=O)O)NC(=O)[C@H](C(C)C)N(C)C(=O)[C@@H]([C@@H](C)CC)OC(=O)[C@H](C(C)(C)O)N(C)C(=O)[C@H](CC(C)C)NC(=O)[C@H](C(C)C)N(C)C1=O` (cyclo(D[NMePhe(3-Br)]PI[NMeV]L[NMeVal(β-OH)][Hmp(2R,3S)][NMeV])), the results for the MIC in assay [1] and in assay [2] were 5 µg/mL (≈ 4.35 µM) and 10 µg/mL (≈ 8.71 µM), respectively.
As to `CC[C@H](C)[C@@H]1NC(=O)[C@@H]2CCCN2C(=O)[C@H](Cc2cccc(-c3ccc(Cl)cc3)c2)N(C)C(=O)[C@H](Cc2ccccc2)NC(=O)[C@H](C(C)C)N(C)C(=O)[C@@H]([C@@H](C)CC)OC(=O)[C@H](C(C)(C)O)N(C)C(=O)[C@H](CC(C)C)NC(=O)[C@H](C(C)C)N(C)C1=O` (cyclo(F[X3]PI[NMeV]L[NMeVal(β-OH)][Hmp(2R,3S)][NMeV])), the results for the MIC in assay [1] and in assay [2] were below 0.5 µg/mL and below 2.5 µg/mL, respectively. Besides, the Ratio in assay [3] was above 10.
Take `CC[C@H](C)[C@@H]1NC(=O)[C@@H]2CCCN2C(=O)[C@H](Cc2cccc(-c3ccccc3)c2)N(C)C(=O)[C@H](Cc2ccccc2)NC(=O)[C@H](C(C)C)N(C)C(=O)[C@@H]([C@@H](C)CC)OC(=O)[C@H](C(C)(C)O)N(C)C(=O)[C@H](CC(C)C)NC(=O)[C@H](C(C)C)N(C)C1=O` (cyclo(F[NMePhe(3-Ph)]PI[NMeV]L[NMeVal(β-OH)][Hmp(2R,3S)][NMeV])): the MIC in assay [1] is below 0.05 µg/mL; in assay [2], below 0.94 µg/mL. Also, the Ratio in assay [3] was above 10.
Consider `CC[C@H](C)[C@@H]1NC(=O)[C@@H]2CCCN2C(=O)[C@H](Cc2cccc(-c3ccc(OC)cc3)c2)N(C)C(=O)[C@H](Cc2ccccc2)NC(=O)[C@H](C(C)C)N(C)C(=O)[C@@H]([C@@H](C)CC)OC(=O)[C@H](C(C)(C)O)N(C)C(=O)[C@H](CC(C)C)NC(=O)[C@H](C(C)C)N(C)C1=O` (cyclo(F[X13]PI[NMeV]L[NMeVal(β-OH)][Hmp(2R,3S)][NMeV])), for which the minimal inhibitory concentration (MIC) in assay [1] came to 5 µg/mL (≈ 4.14 µM).
Consider `CC[C@H](C)[C@@H]1NC(=O)[C@@H]2CCCN2C(=O)[C@H](Cc2cccc(-c3cccc(-c4ccccc4)c3)c2)N(C)C(=O)[C@H](Cc2ccccc2)NC(=O)[C@H](C(C)C)N(C)C(=O)[C@@H]([C@@H](C)CC)OC(=O)[C@H](C(C)(C)O)N(C)C(=O)[C@H](CC(C)C)NC(=O)[C@H](C(C)C)N(C)C1=O` (cyclo(F[X2]PI[NMeV]L[NMeVal(β-OH)][Hmp(2R,3S)][NMeV])), for which the values for the MIC in assay [1] and in assay [2] were below 5 µg/mL and above 5 µg/mL, respectively.
In the same order, the values of `CC[C@H](C)[C@@H]1NC(=O)[C@@H]2CCCN2C(=O)[C@H](Cc2cccc(Br)c2)N(C)C(=O)[C@H](Cc2ccccc2)NC(=O)[C@H](C(C)C)N(C)C(=O)[C@@H]([C@@H](C)CC)OC(=O)[C@H](C(C)(C)O)N(C)C(=O)[C@H](CC(C)C)NC(=O)[C@H](C(C)C)N(C)C1=O` (cyclo(F[NMePhe(3-Br)]PI[NMeV]L[NMeVal(β-OH)][Hmp(2R,3S)][NMeV])) are 0.031 µg/mL (≈ 0.0263 µM) and 2.5 µg/mL (≈ 2.12 µM).
Consider `CC[C@H](C)[C@@H]1NC(=O)[C@@H]2CCCN2C(=O)[C@H](Cc2cccc(C3=CCCCC3)c2)N(C)C(=O)[C@H](Cc2ccccc2)NC(=O)[C@H](C(C)C)N(C)C(=O)[C@@H]([C@@H](C)CC)OC(=O)[C@H](C(C)(C)O)N(C)C(=O)[C@H](CC(C)C)NC(=O)[C@H](C(C)C)N(C)C1=O` (cyclo(F[X14]PI[NMeV]L[NMeVal(β-OH)][Hmp(2R,3S)][NMeV])), for which the MIC in assay [2] is above 5 µg/mL.
On the same count and under the same terms, to `CC[C@H](C)[C@@H]1NC(=O)[C@@H]2CCCN2C(=O)[C@H](Cc2cccc(-c3ccc(NC(C)=O)cc3)c2)N(C)C(=O)[C@H](Cc2ccccc2)NC(=O)[C@H](C(C)C)N(C)C(=O)[C@@H]([C@@H](C)CC)OC(=O)[C@H](C(C)(C)O)N(C)C(=O)[C@H](CC(C)C)NC(=O)[C@H](C(C)C)N(C)C1=O` (cyclo(F[X12]PI[NMeV]L[NMeVal(β-OH)][Hmp(2R,3S)][NMeV])) belongs above 5 µg/mL.
For the molecule `CC[C@H](C)[C@@H]1NC(=O)[C@@H]2CCCN2C(=O)[C@H](Cc2cccc(-c3ccc(Cl)nc3)c2)N(C)C(=O)[C@H](Cc2ccccc2)NC(=O)[C@H](C(C)C)N(C)C(=O)[C@@H]([C@@H](C)CC)OC(=O)[C@H](C(C)(C)O)N(C)C(=O)[C@H](CC(C)C)NC(=O)[C@H](C(C)C)N(C)C1=O` (cyclo(F[X8]PI[NMeV]L[NMeVal(β-OH)][Hmp(2R,3S)][NMeV])), the MIC in assay [1] was below 0.025 µg/mL; in assay [2] it was below 1.25 µg/mL. Also, in assay [3], the Ratio is above 10.
For the molecule `CC[C@H](C)[C@@H]1NC(=O)[C@@H]2CCCN2C(=O)[C@H](Cc2cccc(-c3ccc(C(=O)NC)cc3)c2)N(C)C(=O)[C@H](Cc2ccccc2)NC(=O)[C@H](C(C)C)N(C)C(=O)[C@@H]([C@@H](C)CC)OC(=O)[C@H](C(C)(C)O)N(C)C(=O)[C@H](CC(C)C)NC(=O)[C@H](C(C)C)N(C)C1=O` (cyclo(F[X15]PI[NMeV]L[NMeVal(β-OH)][Hmp(2R,3S)][NMeV])), the MIC in assay [2] is above 5 µg/mL.
Take `CC[C@H](C)[C@@H]1NC(=O)[C@@H]2CCCN2C(=O)[C@H](Cc2cccc(-c3ccncc3)c2)N(C)C(=O)[C@H](Cc2ccccc2)NC(=O)[C@H](C(C)C)N(C)C(=O)[C@@H]([C@@H](C)CC)OC(=O)[C@H](C(C)(C)O)N(C)C(=O)[C@H](CC(C)C)NC(=O)[C@H](C(C)C)N(C)C1=O` (cyclo(F[X9]PI[NMeV]L[NMeVal(β-OH)][Hmp(2R,3S)][NMeV])): the MIC is below 0.025 µg/mL in assay [1] and below 1.25 µg/mL in assay [2]. The Ratio in assay [3] is above 10.
Consider `CC[C@H](C)[C@@H]1NC(=O)[C@@H]2CCCN2C(=O)[C@H](Cc2cccc(B3OC(C)(C)C(C)(C)O3)c2)N(C)C(=O)[C@H](Cc2ccccc2)NC(=O)[C@H](C(C)C)N(C)C(=O)[C@@H]([C@@H](C)CC)OC(=O)[C@H](C(C)(C)O)N(C)C(=O)[C@H](CC(C)C)NC(=O)[C@H](C(C)C)N(C)C1=O` (cyclo(F[X7]PI[NMeV]L[NMeVal(β-OH)][Hmp(2R,3S)][NMeV])), for which the results for the MIC in assay [1] and in assay [2] were below 0.5 µg/mL and 10 µg/mL (≈ 8.15 µM), respectively.
In the same order, the values of `CC[C@H](C)[C@@H]1NC(=O)[C@@H]2CCCN2C(=O)[C@H](Cc2cccc(-c3ccc(-c4ccccc4)cc3)c2)N(C)C(=O)[C@H](Cc2ccccc2)NC(=O)[C@H](C(C)C)N(C)C(=O)[C@@H]([C@@H](C)CC)OC(=O)[C@H](C(C)(C)O)N(C)C(=O)[C@H](CC(C)C)NC(=O)[C@H](C(C)C)N(C)C1=O` (cyclo(F[X4]PI[NMeV]L[NMeVal(β-OH)][Hmp(2R,3S)][NMeV])) are below 5 µg/mL and above 5 µg/mL.
In the case of `CC[C@H](C)[C@@H]1NC(=O)[C@@H]2CCCN2C(=O)[C@H](Cc2cccc(-c3ccccc3Cl)c2)N(C)C(=O)[C@H](Cc2ccccc2)NC(=O)[C@H](C(C)C)N(C)C(=O)[C@@H]([C@@H](C)CC)OC(=O)[C@H](C(C)(C)O)N(C)C(=O)[C@H](CC(C)C)NC(=O)[C@H](C(C)C)N(C)C1=O` (cyclo(F[X6]PI[NMeV]L[NMeVal(β-OH)][Hmp(2R,3S)][NMeV])), the MIC is below 0.5 µg/mL in assay [1] and below 1.25 µg/mL in assay [2]. Besides, the Ratio in assay [3] is above 10.
With `CC[C@H](C)[C@@H]1NC(=O)[C@@H]2CCCN2C(=O)[C@H](Cc2ccc(-c3cccnc3)cc2)N(C)C(=O)[C@H](Cc2ccccc2)NC(=O)[C@H](C(C)C)N(C)C(=O)[C@@H]([C@@H](C)CC)OC(=O)[C@H](C(C)(C)O)N(C)C(=O)[C@H](CC(C)C)NC(=O)[C@H](C(C)C)N(C)C1=O` (cyclo(F[X11]PI[NMeV]L[NMeVal(β-OH)][Hmp(2R,3S)][NMeV])), the result in assay [1] was Active. In assay [2], the MIC was below 2.5 µg/mL.
